Measured values: patent publication US20110118298A1, “COMPOSITIONS, KITS, AND METHODS FOR IDENTIFICATION, ASSESSMENT, PREVENTION, AND THERAPY OF CANCER” (INFINITY PHARMACEUTICALS, INC., priority 2009, published 2011)
Structures can show the parent of a compound that is named as a salt.

Columns and labels:
NCI-H716 = assay: CRC cell line growth inhibition in vitro; assay type: cell-based; conditions: KRAS wt, BRAF wt
Text: (§3) The GI-50 concentration is provided as a function of mutational status.

SW-48 = assay: CRC cell line growth inhibition in vitro; assay type: cell-based; conditions: BRAF wt, EGFR G719S
Text: as §3

HT-55 = assay: CRC cell line growth inhibition in vitro; assay type: cell-based; conditions: BRAF N581Y
Text: as §3

HT-29 = assay: CRC cell line growth inhibition in vitro; assay type: cell-based; conditions: KRAS wt, BRAF V600E
IR and IGF1R receptors = assay: Human Phospho-Receptor Tyrosine Kinase array, BON-1 and H-720 lysates; assay type: cell-based; conditions: 1 μM overnight, BON-1 and H-720 cells
Text: BON-1 and H-720 cell lysates were hybridized to R&D Systems' Human Phospho-Receptor Tyrosine Kinase (RTK) Arrays (Catalog #ARY001) according to the manufacturer's instructions. In the array, each RTK is spotted in duplicate. Hybridization signals at the corners serve as controls.

SW-480 = assay: CRC cell line growth inhibition in vitro; assay type: cell-based; conditions: BRAF wt
Colo 201 = assay: CRC cell line growth inhibition in vitro; assay type: cell-based; conditions: KRAS wt, BRAF V600E
Colo 320 = assay: CRC cell line growth inhibition in vitro; assay type: cell-based; conditions: KRAS wt, BRAF wt
Text: as §3

Colo 205 = assay: CRC cell line growth inhibition in vitro; assay type: cell-based; conditions: KRAS wt, BRAF V600E
HCT-116 = assay: CRC cell line growth inhibition in vitro; assay type: cell-based; conditions: KRAS G13D, BRAF wt
SW-620 = assay: CRC cell line growth inhibition in vitro; assay type: cell-based; conditions: KRAS G12V, BRAF wt
Text: as §3

SNU-C1 = assay: CRC cell line growth inhibition in vitro; assay type: cell-based; conditions: KRAS wt, BRAF wt
Colo 741 = assay: CRC cell line growth inhibition in vitro; assay type: cell-based; conditions: KRAS wt, BRAF V600E
QGP-1 = assay: Neuroendocrine cell line growth inhibition, Cell Titer Glow, 72 hrs; assay type: cell-based; conditions: for GI50: QGP-1, 72 hrs
Protocol: (§1) All cell lines were tested for mycoplasma and maintained at 37° C. in 5% CO2 atmosphere.
(§2) The data were normalized with respect to DMSO vehicle control to generate growth inhibition GI50 values.

HC-45 = assay: as above; assay type: cell-based; conditions: for GI50: HC-45, 72 hrs
Protocol: as §1, §2

H-720 = assay: as above; assay type: cell-based; conditions: for GI50: H-720, 72 hrs
Protocol: as §1, §2

BON-1 = assay: as above; assay type: cell-based; conditions: for GI50: BON-1, 72 hrs
Protocol: as §1, §2

[1] = system: tumors of smoker patients; assay: Clinical trial, response to IPI-504 by smoking status; assay type: in vivo, human
Text: This example describes the results from a clinical trial that assessed the efficacy of IPI-504, alone or in combination with docetaxel, in smoker patients.
FIG. 27 depicts a waterfall plot showing responses to IPI-504 according to smoking status. The y-axis of FIG. 27 represents % of tumor volume change from baseline. Each bar represents one patient.

EML4-ALK = assay: H3122 xenograft, PD time course by ALK specific ELISA; assay type: in vivo, nude mice; conditions: single injection of IPI-504 (100 mg/kg), tumors
Protocol: FIGS. 12A-12B depict a PD time course after IPI-504 treatment. After a single injection of 100 mg/kg IPI-504 tumors were collected at various times and ALK (FIG. 12A) and cleaved PARP (FIG. 12B) levels were monitored using ELISA and immunoblotting respectively.
Consistent with this, the responses to Hsp90 inhibitors in the clinic have so far mostly consisted of induction of stable disease. […] H3122 cells were injected into the flanks of nude mice and animals were treated with 75 mg/kg of IPI-504 twice weekly. […] To confirm degradation of EML4-ALK within these tumors, a separate arm was included in the study where tumors were harvested at different time points after a single injection of IPI-504 and the abundance of the fusion protein over time was monitored using an ALK specific ELISA (FIG. 12A). […] The depletion of EML4-ALK coincides with the appearance of PARP cleavage, an indication of caspase 3 activation and the induction of apoptosis (FIG. 12B).

Question: Which results are given for CO[C@H]1/C=C\C=C(/C)C(=O)NC2=CC(=O)C(N)=C(C[C@@H](C)C[C@H](OC)[C@H](O)[C@@H](C)/C=C(\C)[C@@H]1OC(N)=O)C2=O [IPI-493, 17-AG]?
Answer: GI50 (NCI-H716): 35 nM; GI50 (SW-48; KRAS wt): 7 nM; GI50 (HT-55; KRAS wt): 28 nM; GI50 (HT-29): 2 nM; constitutive phosphorylation of IR and IGF1R receptors (IR and IGF1R receptors): inhibited this constitutive phosphorylation; GI50 (SW-480; KRAS G12V): 30 nM; GI50 (Colo 201): > 10000 nM; GI50 (Colo 320): > 1600 nM; GI50 (Colo 205): 7 nM; GI50 (HCT-116): 34 nM; GI50 (SW-620): 13 nM; GI50 (SNU-C1): 25 nM; GI50 (Colo 741): > 10000 nM; GI50 (QGP-1): 10 nM; GI50 (HC-45): 88 nM; GI50 (H-720): 189 nM; GI50 (BON-1): 19 nM

Question: What does the source list for C=CCNc1c(O)cc2c(O)c1C[C@@H](C)C[C@H](OC)[C@H](O)[C@@H](C)/C=C(\C)[C@H](OC(N)=O)[C@@H](OC)/C=C\C=C(/C)C(=O)N2 [IPI-504, retaspimycin hydrochloride]?
Answer: patients showing a partial response (PR) ([1]; out of 21 smoker patients): 6 patients; objective response rate (ORR) ([1]; smoker patients): 29%; GI50 (NCI-H716; Homo sapiens): 66 nM; GI50 (SW-48; Homo sapiens, SW48, KRAS wt): 13 nM; GI50 (HT-55; Homo sapiens, HT55, KRAS wt): 54 nM; time ALK fusion protein is depleted after a single injection (EML4-ALK): more than 48 h; GI50 (HT-29; Homo sapiens): 6 nM; constitutive phosphorylation of IR and IGF1R receptors (IR and IGF1R receptors): inhibited this constitutive phosphorylation; GI50 (SW-480; Homo sapiens, SW480, KRAS G12V): 42 nM; GI50 (Colo 201; Homo sapiens): > 10000 nM; GI50 (Colo 320; Homo sapiens): > 1600 nM; GI50 (Colo 205; Homo sapiens): 8 nM; GI50 (HCT-116; Homo sapiens): 88 nM; GI50 (SW-620; Homo sapiens): 51 nM; GI50 (SNU-C1; Homo sapiens): 117 nM; GI50 (Colo 741; Homo sapiens): > 10000 nM; GI50 (QGP-1): 302 nM; growth inhibition plateau (QGP-1; QGP-1, IPI-504 72 hours): 60%; GI50 (HC-45): 705 nM; maximum growth inhibition (HC-45; HC-45, IPI-504 72 hours): 100%; GI50 (H-720): 930 nM; maximum growth inhibition (H-720; NCI-H720, IPI-504 72 hours): 100%; GI50 (BON-1): 49 nM; growth inhibition plateau (BON-1; BON-1, IPI-504 72 hours): 60%
